We go through 15 compounds from patent US12281122B1, “PI3K inhibitors” (Cogent Biosciences, Inc., priority 2023, dated 2025).

One experiment concerns the target PI3Kα (Homo sapiens, UniProt P42336). In words: PI3Kα enzyme assay (Transcreener ADP2 TR-FRET Red Assay). Format: biochemical. To be noted: purified recombinant full-length protein; 2 hours pre-incubation with compound; read-out: PI3Kα WT IC50. As to the method: (§1) Activity against PI3Kα and PI3Kα H1047R enzymes were determined in biochemical assays using purified recombinant full-length proteins with the Transcreener ADP^2 TR-FRET Red Assay from Bellbrook Labs. (Catalogue number 3011-10K). Test compounds were dissolved in DMSO and were tested in 11 point 1:3 serial dilutions, typical final concentration range from 50,000 nM to 0.85 nM. Enzymes were pre-incubated with compounds for 2 hours at room temperature prior to initiating the reactions. Assays were initiated with a 2×ATP/PI(4,5)P2 diC8 substrate mixture. After 60 minutes at room temperature, the reactions were quenched with detection reagent and incubated for an additional 60 minutes at room temperature. The plates were read using a multimode reader and the emission ratio of 665 nm to 615 nm was determined. This ratio was converted to percent of control (POC). [1-(high control-sample signal)/(high control-low control)]*100. Wells without compound were used to determine high control values and wells without enzyme were used to determine low control values. The POC values were fit using a four-parameter logistic model and the value where the fit curve was equal to 50 POC was reported as the IC50 using the Signals VitroVivo software package (PerkinElmer). Final assay conditions were: 40 mM HEPES pH 7.5, 20 mM NaCl, 25 mM MgCl2, 0.01% Triton X-100. The enzyme source, catalogue number, final enzyme concentration, and final ATP and PI(4,5)P2 diC8 concentration can be found in the table E10 below.

The next experiment concerns the target PI3Kα H1047R (Homo sapiens, UniProt P42336, H1047R). Kind of experiment: PI3Kα H1047R enzyme assay (Transcreener ADP2 TR-FRET Red Assay). Format: biochemical. To be noted: purified recombinant full-length protein; 2 hours pre-incubation with compound. On the procedure: as §1
Experiment [1] concerns T47D (PI3Kα-H1047R) cell line. In words: HTRF phospho-AKT(S473) cell assay in T47D cells. Format: cell-based, human. A digest of the protocol: (§2)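 pAKT(S473) in lysates read by HTRF after a 2 h, 37 °C compound exposure (12-point 1:3 series, max 0.5% DMSO). SKBR3 (wild type, top 10 μM) received 70 ng/ml PDGF-BB during the final 15 min; T47D (H1047R, top 5 μM) was unstimulated. IC50 values derived from the dose-response.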

The subject of experiment [2] is SKBR3 (PI3Kα-Wild Type) cell line. In words: HTRF phospho-AKT(S473) cell assay in SKBR3 cells. Format: cell-based, human. A digest of the protocol:
as §2

[3] abbreviates: Homo sapiens; T47D (PI3Kα-H1047R) cells, HTRF phospho-AKT(S473), 2 hours compound incubation.
The mark [4] stands for this setting: Homo sapiens, SK-BR-3; SKBR3 (PI3Kα-Wild Type) cells, HTRF phospho-AKT(S473), 2 hours compound incubation, PDGF-BB stimulated.
Where [5] appears, read: Homo sapiens; HTRF phospho-AKT(S473), T47D (PI3Kα-H1047R) cells, 2 hours compound incubation.
The mark [6] stands for this setting: Homo sapiens, SK-BR-3; HTRF phospho-AKT(S473), SKBR3 (PI3Kα-Wild Type) cells, 2 hours compound incubation, PDGF-BB stimulated.

SMILES strings stand for the structures. pIC50: −log10 of the molar value. Where only a bound is given, the exact number is not on record here.

Chain of PI3Kα H1047R (P42336 whole entry H1047R): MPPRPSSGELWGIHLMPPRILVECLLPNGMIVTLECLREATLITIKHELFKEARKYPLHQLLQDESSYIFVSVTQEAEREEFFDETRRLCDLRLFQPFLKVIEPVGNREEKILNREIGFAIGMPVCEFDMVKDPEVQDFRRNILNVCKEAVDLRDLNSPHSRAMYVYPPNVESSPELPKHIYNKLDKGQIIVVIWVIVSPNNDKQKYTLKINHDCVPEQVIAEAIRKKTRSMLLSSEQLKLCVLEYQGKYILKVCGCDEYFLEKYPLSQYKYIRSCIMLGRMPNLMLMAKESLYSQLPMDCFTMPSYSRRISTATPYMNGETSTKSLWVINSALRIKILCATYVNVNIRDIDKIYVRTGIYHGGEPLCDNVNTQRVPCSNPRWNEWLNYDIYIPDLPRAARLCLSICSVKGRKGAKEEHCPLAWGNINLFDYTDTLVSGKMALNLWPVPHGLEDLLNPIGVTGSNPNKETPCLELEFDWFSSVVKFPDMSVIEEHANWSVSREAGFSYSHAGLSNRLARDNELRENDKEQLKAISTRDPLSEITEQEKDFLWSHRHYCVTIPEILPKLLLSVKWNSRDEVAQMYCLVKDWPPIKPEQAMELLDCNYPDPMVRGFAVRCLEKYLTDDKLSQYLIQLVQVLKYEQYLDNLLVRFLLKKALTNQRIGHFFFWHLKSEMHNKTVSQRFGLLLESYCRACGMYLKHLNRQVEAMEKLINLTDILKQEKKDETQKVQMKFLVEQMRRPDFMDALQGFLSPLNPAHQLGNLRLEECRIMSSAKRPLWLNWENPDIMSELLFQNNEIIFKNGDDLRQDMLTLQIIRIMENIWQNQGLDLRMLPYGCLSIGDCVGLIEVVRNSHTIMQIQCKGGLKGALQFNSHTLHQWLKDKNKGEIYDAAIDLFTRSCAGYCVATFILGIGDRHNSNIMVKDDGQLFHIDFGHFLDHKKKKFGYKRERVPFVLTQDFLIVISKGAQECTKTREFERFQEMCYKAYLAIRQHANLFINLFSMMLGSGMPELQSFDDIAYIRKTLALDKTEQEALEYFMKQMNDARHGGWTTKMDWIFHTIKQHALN
Chain of PI3Kα H1047R (P27986 2-724 partner): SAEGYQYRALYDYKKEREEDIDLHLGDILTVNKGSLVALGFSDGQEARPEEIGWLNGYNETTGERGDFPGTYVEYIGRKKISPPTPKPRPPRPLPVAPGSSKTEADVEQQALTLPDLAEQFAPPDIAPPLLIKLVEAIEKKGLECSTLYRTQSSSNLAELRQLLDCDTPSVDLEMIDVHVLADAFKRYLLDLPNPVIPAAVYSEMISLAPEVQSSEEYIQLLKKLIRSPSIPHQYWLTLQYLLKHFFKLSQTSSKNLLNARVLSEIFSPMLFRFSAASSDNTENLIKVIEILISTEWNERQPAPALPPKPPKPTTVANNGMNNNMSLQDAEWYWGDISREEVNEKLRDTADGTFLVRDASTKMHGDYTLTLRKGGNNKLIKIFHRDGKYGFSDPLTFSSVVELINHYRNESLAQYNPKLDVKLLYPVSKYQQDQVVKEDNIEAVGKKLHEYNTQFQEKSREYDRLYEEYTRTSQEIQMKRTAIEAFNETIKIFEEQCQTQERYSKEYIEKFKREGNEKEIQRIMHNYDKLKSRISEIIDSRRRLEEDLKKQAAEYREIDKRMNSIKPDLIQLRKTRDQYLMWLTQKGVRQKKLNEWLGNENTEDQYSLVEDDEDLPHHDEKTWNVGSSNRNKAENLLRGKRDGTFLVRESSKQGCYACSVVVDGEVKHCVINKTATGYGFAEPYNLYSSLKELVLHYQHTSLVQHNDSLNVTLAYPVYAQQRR
Chain of PI3Kα (P42336 whole entry): as the sequence (P42336 whole entry H1047R) above, with R1047H counted along it
Chain of PI3Kα (P27986 2-724 partner): as the sequence (P27986 2-724 partner) above

Consider `Cc1cc([C@@H](C)Nc2cc(C)c(F)nc2C(=O)NS(C)(=O)=O)c2nc(N3Cc4ccc(F)cc4C3)n(C)c(=O)c2c1` [Compound 69, (R)-6-fluoro-3-((1-(2-(5-fluoro-isoindolin-2-yl)-3,6-dimethyl-4-oxo-3,4-dihydroquinazolin-8-yl)ethyl)amino)-5-methyl-N-(methylsulfonyl)picolinamide], for which the pIC50 is at most 6.00 on PI3Kα, at most 6.00 at PI3Kα H1047R, 5.30 to 6.00 in experiment [1] (setting [3]) and at most 5.30 in experiment [2] (setting [4]).
In the case of `Cc1cc([C@@H](C)Nc2ccc[nH]c2=O)c2nc(N3Cc4ccc(F)cc4C3)n(C)c(=O)c2c1` [Compound 94, (R)-2-(5-fluoroisoindolin-2-yl)-3,6-dimethyl-8-(1-((2-oxo-1,2-dihydropyridin-3-yl)amino)ethyl)quinazolin-4(3H)-one], the pIC50 at PI3Kα was at most 6.00; on PI3Kα H1047R, at most 6.00; in experiment [1] (setting [3]), 5.30 to 6.00; in experiment [2] (setting [4]) it was at most 5.30.
In the case of `Cc1cc([C@@H](C)Nc2ccc(Cl)nc2C(=O)NS(C)(=O)=O)c2nc(OCc3ccccc3)n(C)c(=O)c2c1` [Compound 50, (R)-3-((1-(2-(benzyloxy)-3,6-dimethyl-4-oxo-3,4-dihydroquinazolin-8-yl)ethyl)amino)-6-chloro-N-(methylsulfonyl) picolinamide], the pIC50 is at most 6.00 at PI3Kα, 6.30 to 6.60 on PI3Kα H1047R, 5.30 to 6.00 in experiment [1] (setting [3]) and 5.30 to 6.00 in experiment [2] (setting [4]).
In the case of `C[C@@H](Nc1cccnc1C(=O)NS(C)(=O)=O)c1cc(F)cc2c(=O)n(C)c(N3Cc4ccc(F)cc4C3)nc12` [Compound 60, (R)-3-((1-(6-fluoro-2-(5-fluoro-isoindolin-2-yl)-3-methyl-4-oxo-3,4-dihydroquinazolin-8-yl)ethyl)amino)-N-(methylsulfonyl) picolinamide], the pIC50 on PI3Kα was at most 6.00; at PI3Kα H1047R, at most 6.00; in experiment [1] (setting [3]), 5.30 to 6.00; in experiment [2] (setting [4]) it was 5.30 to 6.00.
Regarding `Cc1cc([C@@H](C)Nc2ccc(Cl)nc2C(=O)NS(C)(=O)=O)c2nc(N(C)CC3(C(F)(F)F)CC3)n(C)c(=O)c2c1` [Compound 43, (R)-6-chloro-3-((1-(3,6-dimethyl-2-(methyl((1-(trifluoromethyl)cyclopropyl)methyl)amino)-4-oxo-3,4-dihydroquinazolin-8-yl)ethyl)amino)-N-(methylsulfonyl) picolinamide], the pIC50 on PI3Kα and at PI3Kα H1047R was at most 6.00 throughout.
Consider `CC(=O)N1CCC(c2ccc(-c3nc4c([C@@H](C)Nc5ccc(Cl)nc5C(=O)NS(C)(=O)=O)cc(C)cc4c(=O)n3C)c(F)c2)CC1` [Compound 780, (R)-3-((1-(2-(4-(1-acetylpiperidin-4-yl)-2-fluorophenyl)-3,6-dimethyl-4-oxo-3,4-dihydroquinazolin-8-yl)ethyl)amino)-6-chloro-N-(methylsulfonyl) picolinamide], for which the pIC50 was above 6.60 in experiment [1] (setting [5]) and 5.30 to 6.00 in experiment [2] (setting [6]).
`Cc1cc([C@@H](C)Nc2ccc(Cl)nc2C(=O)NS(C)(=O)=O)c2nc(N3CCN(c4ccnc(C(F)F)n4)CC3)n(C)c(=O)c2c1` [Compound 649, (R)-6-chloro-3-((1-(2-(4-(2-(difluoromethyl)pyrimidin-4-yl)piperazin-1-yl)-3,6-dimethyl-4-oxo-3,4-dihydroquinazolin-8-yl)ethyl)amino)-N-(methylsulfonyl) picolinamide]: the pIC50 in experiment [1] (setting [5]) is above 6.60; in experiment [2] (setting [6]) it was 5.30 to 6.00.
For `COc1c([C@H]2[C@@H]3CN(c4nc5c([C@@H](C)Nc6ccc(Cl)nc6C(=O)NS(C)(=O)=O)cc(C)cc5c(=O)n4C)C[C@@H]32)cnn1C` [Compound 461, 6-chloro-3-(((R)-1-(2-((1R,5S,6S)-6-(5-methoxy-1-methyl-1H-pyrazol-4-yl)-3-azabicyclo[3.1.0]hexan-3-yl)-3,6-dimethyl-4-oxo-3,4-dihydroquinazolin-8-yl)ethyl)amino)-N-(methylsulfonyl) picolinamide], the pIC50 was above 6.60 in experiment [1] (setting [5]) and 5.30 to 6.00 in experiment [2] (setting [6]).
Consider `Cc1cc([C@@H](C)Nc2ccc(Cl)nc2C(=O)NS(C)(=O)=O)c2nc(N3CCC(c4nc(C)nn4C)CC3)n(C)c(=O)c2c1` [Compound 523, (R)-6-chloro-3-((1-(2-(4-(1,3-dimethyl-1H-1,2,4-triazol-5-yl)piperidin-1-yl)-3,6-dimethyl-4-oxo-3,4-dihydroquinazolin-8-yl)ethyl)amino)-N-(methylsulfonyl) picolinamide], for which the pIC50 in experiment [1] (setting [5]) was 6.30 to 6.60; in experiment [2] (setting [6]) it was at most 5.30.
Consider `CCn1c(N2Cc3cn(CC(F)(F)F)nc3C2)nc2c([C@@H](C)Nc3ccc(Cl)nc3C(=O)NS(C)(=O)=O)cc(C)cc2c1=O` [Compound 732, (R)-6-chloro-3-((1-(3-ethyl-6-methyl-4-oxo-2-(2-(2,2,2-trifluoroethyl)-2,6-dihydropyrrolo[3,4-c]pyrazol-5(4H)-yl)-3,4-dihydroquinazolin-8-yl)ethyl)amino)-N-(methylsulfonyl) picolinamide], for which the pIC50 in experiment [1] (setting [5]) was above 6.60; in experiment [2] (setting [6]), 5.30 to 6.00.
On the same counts, the results for `Cc1cc([C@@H](C)Nc2ccc(Cl)nc2C(=O)NS(C)(=O)=O)c2nc(-c3ccc(-c4ccn(C)n4)cn3)n(C)c(=O)c2c1` [Compound 838, (R)-6-chloro-3-((1-(3,6-dimethyl-2-(5-(1-methyl-1H-pyrazol-3-yl)pyridin-2-yl)-4-oxo-3,4-dihydroquinazolin-8-yl)ethyl)amino)-N-(methylsulfonyl) picolinamide] are 6.30 to 6.60 and 5.30 to 6.00.
Take `Cc1cc([C@@H](C)Nc2ccc(Cl)nc2C(=O)NS(C)(=O)=O)c2nc(N3CCC(n4cc5ccccc5n4)CC3)n(C)c(=O)c2c1` [Compound 198, (R)-3-((1-(2-(4-(2H-indazol-2-yl)piperidin-1-yl)-3,6-dimethyl-4-oxo-3,4-dihydroquinazolin-8-yl)ethyl)amino)-6-chloro-N-(methylsulfonyl) picolinamide]: the pIC50 in experiment [1] (setting [3]) was above 6.60; in experiment [2] (setting [4]), 5.30 to 6.00.
In the case of `Cc1cc([C@@H](C)Nc2ccc(Cl)nc2C(=O)NS(C)(=O)=O)c2nc(N3CCC(c4cccnc4C)CC3)n(C)c(=O)c2c1` [Compound 437, (R)-6-chloro-3-((1-(3,6-dimethyl-2-(4-(2-methylpyridin-3-yl)piperidin-1-yl)-4-oxo-3,4-dihydroquinazolin-8-yl)ethyl)amino)-N-(methylsulfonyl) picolinamide], the negative logarithm of the IC50 (pIC50) in experiment [1] (setting [3]) is above 6.60; in experiment [2] (setting [4]) it was 5.30 to 6.00.
`Cc1cc([C@@H](C)Nc2ccc(Cl)nc2C(=O)NS(C)(=O)=O)c2nc(N3C[C@@H]4[C@H](C3)[C@H]4c3nn(C)c(C)c3F)n(C)c(=O)c2c1` [Compound 462, 6-chloro-3-(((R)-1-(2-((1R,5S,6R)-6-(4-fluoro-1,5-dimethyl-1H-pyrazol-3-yl)-3-azabicyclo[3.1.0]hexan-3-yl)-3,6-dimethyl-4-oxo-3,4-dihydroquinazolin-8-yl)ethyl)amino)-N-(methylsulfonyl) picolinamide]: the pIC50 in experiment [1] (setting [5]) was above 6.60; in experiment [2] (setting [6]), at most 5.30.
Regarding `Cc1cc([C@@H](C)Nc2ccc(Cl)nc2C(=O)NS(C)(=O)=O)c2nc(N3CCC4(CCN(c5ccn(C)n5)C4)CC3)n(C)c(=O)c2c1` [Compound 359, (R)-6-chloro-3-((1-(3,6-dimethyl-2-(2-(1-methyl-1H-pyrazol-3-yl)-2,8-diazaspiro[4.5]decan-8-yl)-4-oxo-3,4-dihydroquinazolin-8-yl)ethyl)amino)-N-(methylsulfonyl) picolinamide], the pIC50 is 6.30 to 6.60 in experiment [1] (setting [3]) and at most 5.30 in experiment [2] (setting [4]).
